This note sets out measurements from US10428104B2, “Substituted nucleoside derivatives useful as anticancer agents” (Pfizer Inc., priority 2015, dated 2019).

The assay concerns the target PRMT5/MEP50 protein complex (Homo sapiens (Human), UniProt O14744). In words: PRMT5 biochemical assay (3H-SAM methylation of H4(1-21) peptide, filter plate scintillation counting). The conditions noted are these: PRMT5 enzyme inhibition; 10 nM PRMT5/MEP50 complex, 200 nM H4(1-21) peptide, 1 uM SAM, 25 minute incubation at room temperature. The procedure: Following dilution, 1 ul was added to an empty 96-well microtiter plate. PRMT5/MEP50 protein complex was combined with H4(1-21) peptide ([…]) in PRMT5 assay buffer (50 mM Tris pH 8.5, 50 mM NaCl, 5 mM MgCl2, 1 mM EDTA, 1 mM TCEP) and 44 ul was added to the microtiter plate containing compound. S-Adenosyl-L-methionine (SAM) was prepared by combining ^3H labelled SAM with unlabelled SAM in PRMT5 assay buffer such that the final SAM concentration was 10 uM and the specific activity was 0.2 uCi/ul. The reaction was initiated by adding 5 ul of SAM stock to the microtiter plate. The final reaction conditions were 10 nM PRMT5/MEP50 complex, 200 nM peptide and 1 uM SAM. Following a 25 minute incubation at room temperature, the reaction was stopped with the addition of 100 uL of 20% TCA. The 3H-peptide product was captured using a 96-well filter plate (MSIPN4B, Millipore) and washed 5 times with PBS buffer. Scintillation fluid (100 ul) was added to the dried filter plate and counted in a liquid scintillation counter. IC50 values were determined by fitting the data to the standard 4-parameter dose response equation using Pfizer proprietary software.
In the final construct PRMT5 ORF was under control of polyhedrin promoter (polH) while MEP50 ORF was under control of p10 promoter.
Viruses were generated using standard Bac-to-Bac viral generation protocols (Life Technologies) and amplified to high-titer passage two (P2) stocks. Protein over expression was conducted in exponentially growing Sf21 cells infected at 2×106 with P2 viral stock at MOI=1 of PRMT5-Mep50 dual construct virus and Mep50 construct virus at 1:1 ratio. The co-expression protocol was used to supplement additional Mep50 for FlagPRMT5-Mep50 heterodimer formation. Cells were harvested at 72 h post infection by centrifugation and frozen pellet was stored at −80° C.
FlagPRMT5-Mep50 complex was purified from cell lysate using Flag affinity chromatography. Cell were lyzed in 50 mM Tris 7.5, 200 mM NaCl, 10% glycerol, 0.25 mM TCEP supplemented with EDTA-free protease inhibitor cocktail (Roche). 1.5 ml of lysis buffer was added per 1 g of frozen pellet. The clarified lysate was obtained by centrifugation of cell lysate at 10,000 g for 1 h at 4 C. 5 ml of Anti-FLAG M2 Agarose (Sigma) […] was added to the clarified lysate to isolate FlagPRMT5-Mep50. Following batch binding for 3 h at 4 C, Flag resin bound to FlagPRMT5-Mep50 washed with 20 column volumes (CV) of 50 mM Tris 7.5, 200 mM NaCl, 10% glycerol, 0.25 mM TCEP followed by elution of FlagPRMT5-Mep50 complex using 3 CV of 50 mM Tris 7.5, 200 mM NaCl, 10% glycerol, 0.25 mM TCEP supplemented with 200 ug/ml of FLAG Peptide ([…]). […] Peak fractions containing FlagPRMT5-Mep50 complex were concentrated to 1.6 mg/ml, flash frozen in small aliquots using liquid nitrogen and stored at −80° C.

PRMT5/MEP50 protein complex, sequence (O14744 other isoform, or with tags, fused parts or gaps): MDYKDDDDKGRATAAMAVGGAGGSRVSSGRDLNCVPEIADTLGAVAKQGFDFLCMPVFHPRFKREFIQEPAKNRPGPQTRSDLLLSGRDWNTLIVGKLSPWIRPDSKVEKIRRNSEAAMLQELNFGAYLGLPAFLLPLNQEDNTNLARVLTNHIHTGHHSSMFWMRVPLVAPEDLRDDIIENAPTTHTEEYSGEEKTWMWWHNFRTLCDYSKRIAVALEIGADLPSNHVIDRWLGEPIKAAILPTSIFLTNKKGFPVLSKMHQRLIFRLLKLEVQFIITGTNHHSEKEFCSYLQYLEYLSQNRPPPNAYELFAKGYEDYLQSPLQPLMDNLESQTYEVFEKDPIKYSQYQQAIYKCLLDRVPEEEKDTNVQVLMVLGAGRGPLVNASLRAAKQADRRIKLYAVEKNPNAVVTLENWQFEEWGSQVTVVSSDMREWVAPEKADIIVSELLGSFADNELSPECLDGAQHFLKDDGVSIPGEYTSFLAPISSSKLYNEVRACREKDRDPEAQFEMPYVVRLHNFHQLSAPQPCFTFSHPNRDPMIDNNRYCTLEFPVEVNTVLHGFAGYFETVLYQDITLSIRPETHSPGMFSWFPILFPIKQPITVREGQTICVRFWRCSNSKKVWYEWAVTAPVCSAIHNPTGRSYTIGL
PRMT5/MEP50 protein complex, sequence (Q9BQA1 whole entry partner): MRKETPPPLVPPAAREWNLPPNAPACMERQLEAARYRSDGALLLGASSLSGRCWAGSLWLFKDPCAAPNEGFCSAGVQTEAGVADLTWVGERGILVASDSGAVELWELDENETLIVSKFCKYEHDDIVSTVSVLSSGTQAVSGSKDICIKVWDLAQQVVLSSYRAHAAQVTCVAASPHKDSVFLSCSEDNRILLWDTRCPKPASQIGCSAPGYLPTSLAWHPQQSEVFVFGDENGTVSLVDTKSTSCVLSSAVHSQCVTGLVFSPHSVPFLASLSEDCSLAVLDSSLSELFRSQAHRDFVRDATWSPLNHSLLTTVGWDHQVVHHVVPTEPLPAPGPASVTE

`Cc1ncnc2c1ccn2[C@@H]1O[C@H]([C@@H](O)c2cccc(F)c2)[C@@H](O)[C@H]1O` [Example 35, (2R,3S,4R,5R)-2-((S)-(3-fluorophenyl)(hydroxy)methyl)-5-(4-methyl-7H-pyrrolo[2,3-d]pyrimidin-7-yl)tetrahydrofuran-3,4-diol] came in with an IC50 of 1.74 µM. As to `CC[C@H](O)[C@H]1O[C@@H](n2ccc3c(C)ncnc32)[C@H](O)[C@@H]1O` [Example 41, (2R,3S,4R,5R)-2-((S)-1-hydroxypropyl)-5-(4-methyl-7H-pyrrolo[2,3-d]pyrimidin-7-yl)tetrahydrofuran-3,4-diol], inhibition was half-maximal at 3.85 µM (IC50).

The compound `Cc1ncnc2c1ccn2[C@@H]1O[C@H]([C@H](O)C2CCCC2)[C@@H](O)[C@H]1O` [Example 42, (2R,3S,4R,5R)-2-((R)-cyclopentyl(hydroxy)methyl)-5-(4-methyl-7H-pyrrolo[2,3-d]pyrimidin-7-yl)tetrahydrofuran-3,4-diol] showed an IC50 of 0.663 µM. In turn, `Cc1ncnc2c1ccn2[C@@H]1O[C@H]([C@@H](O)C2CCCC2)[C@@H](O)[C@H]1O` [Example 43, (2R,3S,4R,5R)-2-((S)-cyclopentyl(hydroxy)methyl)-5-(4-methyl-7H-pyrrolo[2,3-d]pyrimidin-7-yl)tetrahydrofuran-3,4-diol] gave an IC50 of 74 µM. `Cc1ncnc2c1ccn2[C@@H]1O[C@H]([C@H](C)O)[C@@H](O)[C@H]1O` [Example 45, (2R,3S,4R,5R)-2-((S)-1-hydroxyethyl)-5-(4-methyl-7H-pyrrolo[2,3-d]pyrimidin-7-yl)tetrahydrofuran-3,4-diol] displayed a concentration for half-maximal inhibition (IC50) of 1.74 µM. The result for `Cc1ncnc2c1ccn2[C@@H]1O[C@H]([C@H](O)C2CC2)[C@@H](O)[C@H]1O` [Example 46, (2R,3S,4R,5R)-2-((R)-cyclopropyl(hydroxy)methyl)-5-(4-methyl-7H-pyrrolo[2,3-d]pyrimidin-7-yl)tetrahydrofuran-3,4-diol] reads 0.367 µM. The result for `Cc1ncnc2c1ccn2[C@@H]1O[C@H]([C@@H](O)C2CC2)[C@@H](O)[C@H]1O` [Example 47, (2R,3S,4R,5R)-2-((S)-cyclopropyl(hydroxy)methyl)-5-(4-methyl-7H-pyrrolo[2,3-d]pyrimidin-7-yl)tetrahydrofuran-3,4-diol] reads 15.4 µM; that for `Cc1ncnc2c1ccn2[C@@H]1O[C@H]([C@H](O)C(C)C)[C@@H](O)[C@H]1O` [Example 48, (2R,3S,4R,5R)-2-((R)-1-hydroxy-2-methylpropyl)-5-(4-methyl-7H-pyrrolo[2,3-d]pyrimidin-7-yl)tetrahydrofuran-3,4-diol], 0.517 µM. The result for `Cc1ncnc2c1ccn2[C@@H]1O[C@H]([C@@H](O)C(C)C)[C@@H](O)[C@H]1O` [Example 49, (2R,3S,4R,5R)-2-((S)-1-hydroxy-2-methylpropyl)-5-(4-methyl-7H-pyrrolo[2,3-d]pyrimidin-7-yl)tetrahydrofuran-3,4-diol] reads 37.5 µM; that for `Cc1ncnc2c1ccn2[C@@H]1O[C@H]([C@H](O)C2CCC2)[C@@H](O)[C@H]1O` [Example 52, (2R,3S,4R,5R)-2-((R)-cyclobutyl(hydroxy)methyl)-5-(4-methyl-7H-pyrrolo[2,3-d]pyrimidin-7-yl)tetrahydrofuran-3,4-diol], 1.26 µM. Consider `Cc1ncnc2c1ccn2[C@@H]1O[C@H]([C@@H](O)C2CCC2)[C@@H](O)[C@H]1O` [Example 53, (2R,3S,4R,5R)-2-((S)-cyclobutyl(hydroxy)methyl)-5-(4-methyl-7H-pyrrolo[2,3-d]pyrimidin-7-yl)tetrahydrofuran-3,4-diol], for which the IC50 was 9.23 µM. As for `Cc1ncnc2c1ccn2[C@@H]1O[C@H]([C@H](O)c2ccco2)[C@@H](O)[C@H]1O` [Example 54, (2S,3S,4R,5R)-2-((S)-furan-2-yl(hydroxy)methyl)-5-(4-methyl-7H-pyrrolo[2,3-d]pyrimidin-7-yl)tetrahydrofuran-3,4-diol], the IC50 was 0.024 µM. In turn, `Cc1ncnc2c1ccn2[C@@H]1O[C@H]([C@@H](O)c2ccco2)[C@@H](O)[C@H]1O` [Example 55, (2S,3S,4R,5R)-2-((R)-furan-2-yl(hydroxy)methyl)-5-(4-methyl-7H-pyrrolo[2,3-d]pyrimidin-7-yl)tetrahydrofuran-3,4-diol] displayed an IC50 of 4.76 µM. Consider `Cc1ncnc2c1ccn2[C@@H]1O[C@H]([C@H](O)C(F)(F)F)[C@@H](O)[C@H]1O` [Example 56, (2R,3R,4S,5S)-2-(4-methyl-7H-pyrrolo[2,3-d]pyrimidin-7-yl)-5-((S)-2,2,2-trifluoro-1-hydroxyethyl)tetrahydrofuran-3,4-diol], for which the IC50 amounted to 0.011 µM.

Consider `Cc1ncnc2c1ccn2[C@@H]1O[C@H]([C@@H](O)C(F)(F)F)[C@@H](O)[C@H]1O` [Example 57, (2R,3R,4S,5S)-2-(4-methyl-7H-pyrrolo[2,3-d]pyrimidin-7-yl)-5-((R)-2,2,2-trifluoro-1-hydroxyethyl)tetrahydrofuran-3,4-diol], for which the IC50 amounted to 6.31 µM. The result for `Cc1ncnc2c1ccn2[C@@H]1O[C@H](Cn2cccn2)[C@@H](O)[C@H]1O` [Example 58, (2R,3S,4R,5R)-2-((1H-pyrazol-1-yl)methyl)-5-(4-methyl-7H-pyrrolo[2,3-d]pyrimidin-7-yl)tetrahydrofuran-3,4-diol] reads 1.98 µM; that for `Cc1ncnc2c1ccn2[C@@H]1OC(C(F)(F)c2ccc(F)cc2)[C@@H](O)[C@H]1O` (stereo partly drawn) [Example 59, (3S,4R,5R)-2-(difluoro(4-fluorophenyl)methyl)-5-(4-methyl-7H-pyrrolo[2,3-d]pyrimidin-7-yl)tetrahydrofuran-3,4-diol], 0.491 µM; that for `Cc1nc(N)nc2c1ccn2[C@@H]1O[C@H]([C@@H](O)c2ccc(F)cc2)[C@@H](O)[C@H]1O` [Example 65, (2R,3R,4S,5R)-2-(2-amino-4-methyl-7H-pyrrolo[2,3-d]pyrimidin-7-yl)-5-((S)-(4-fluorophenyl)(hydroxy)methyl)tetrahydrofuran-3,4-diol], 0.488 µM.

Compound `Cc1ncnc2c1ccn2[C@@H]1O[C@@H](c2ccccc2)[C@@H](O)[C@H]1O` [Example 66, (2R,3R,4S,5S)-2-(4-methyl-7H-pyrrolo[2,3-d]pyrimidin-7-yl)-5-phenyltetrahydrofuran-3,4-diol] came in with an IC50 of 1.99 µM.

The compound `Nc1ncnc2c1c(F)cn2[C@@H]1O[C@@H](c2ccccc2)[C@@H](O)[C@H]1O` [Example 67, (2R,3R,4S,5S)-2-(4-amino-5-fluoro-7H-pyrrolo[2,3-d]pyrimidin-7-yl)-5-phenyltetrahydrofuran-3,4-diol] displayed a 50% inhibitory concentration (IC50) of 1.56 µM. Take `Cc1nc(N)nc2c1ccn2[C@@H]1O[C@@H](c2ccccc2)[C@@H](O)[C@H]1O` [Example 68, (2R,3R,4S,5S)-2-(2-amino-4-methyl-7H-pyrrolo[2,3-d]pyrimidin-7-yl)-5-phenyltetrahydrofuran-3,4-diol]: the IC50 worked out at 5.5 µM. `Cc1ncnc2c1ccn2[C@@H]1O[C@@H](c2cnco2)[C@@H](O)[C@H]1O` [Example 69, (2R,3R,4S,5R)-2-(4-methyl-7H-pyrrolo[2,3-d]pyrimidin-7-yl)-5-(oxazol-5-yl)tetrahydrofuran-3,4-diol] yielded a concentration for half-maximal inhibition (IC50) of 1.05 µM. In the case of `Cc1ncnc2c1ccn2[C@@H]1O[C@@H]([C@@H](C)O)[C@@H](O)[C@H]1O` [Example 70, (2S,3S,4R,5R)-2-((R)-1-hydroxyethyl)-5-(4-methyl-7H-pyrrolo[2,3-d]pyrimidin-7-yl)tetrahydrofuran-3,4-diol], the half-inhibitory concentration (IC50) turned out to be 0.05 µM. The same measure for `Cc1ncnc2c1ccn2[C@@H]1O[C@@H](CO)[C@@H](O)[C@H]1O` [Example 71, (2S,3S,4R,5R)-2-(hydroxymethyl)-5-(4-methyl-7H-pyrrolo[2,3-d]pyrimidin-7-yl)tetrahydrofuran-3,4-diol]: 0.052 µM; for `Cc1ncnc2c1ccn2[C@@H]1O[C@@H](c2ccn[nH]2)[C@@H](O)[C@H]1O` [Example 72, (2R,3R,4S,5S)-2-(4-methyl-7H-pyrrolo[2,3-d]pyrimidin-7-yl)-5-(1H-pyrazol-5-yl)tetrahydrofuran-3,4-diol]: 2.03 µM.

Usually IC50 stands for the point on the concentration scale where inhibition reaches its midpoint.
